Results as given in patent publication US20230278954A1, “BRANCHED LIPID COMPOUDS” (priority 2020, published 2023).
Several values for one entry are separate records, joined by “and”; a condition that tells them apart may be missing. Identical values can stand only once.

Tests used:
human TLR2 = biological target: T1, human TLR2 (Homo sapiens, UniProt O60603); test: Activation of human TLR2 III: HEK-Blue hTLR2 dose response (SEAP reporter); format: cell-based; details: for optical density (650 nm): screenings 1-3; for stimulatory / agonist activity for hTLR2 (in words) / fold induction at 120 fg/mL / fold induction at 490 fg/mL / fold induction at 1.95 pg/mL / fold induction at 7.81 pg/mL / fold induction at 31.25 pg/mL / fold induction at 0.000125 µg/mL / fold induction at 0.0005 µg/mL: HEK-Blue hTLR2; for fold induction at 120 fg/mL / fold induction at 490 fg/mL / fold induction at 1.95 pg/mL / fold induction at 7.81 pg/mL / fold induction at 31.25 pg/mL / fold induction at 0.000125 µg/mL / fold induction at 0.0005 µg/mL: read-out: Fold Induction (ratio of average induced value to average non-induced value); for EC50: agonism of hTLR2, HEK-Blue hTLR2
T1 construct: expressed in transfected cells; host or cells: HEK-Blue hTLR2 cells
Description: (§1) Toll-Like Receptor (TLR) stimulation is tested by assessing NF-KB activation in the TLR expressing cell lines. HEK-Blue h/mTLR2 cells have been stably transfected with human or mouse TLR2 and CD14. The activity of the test articles are tested on human and mouse TLR2, as potential agonists. The test articles are evaluated at seven concentrations and compared to control ligands (see list below). These steps are performed in triplicate.
(§2) A 5 µg/mL working stock was then prepared for each compound from the 20 µg/mL dilution in sterile PBS. Starting from the 5 µg/mL working stock, a series of six 1:4 serial dilutions were made by mixing 100 µL of the previous highest dilution with 300 µL sterile PBS.
(§3) The secreted embryonic alkaline phosphatase (SEAP) reporter is under the control of a promoter inducible by the transcription factor NF-κB. This reporter gene allows the monitoring of signaling through the TLR, based on the activation of NF-κB. In a 96-well plate (200 µL total volume) containing the appropriate cells (50,000 - 75,000 cells/well), 20 µL of the test article or the positive control ligand (HKLC) is added to the wells. The media added to the wells is designed for the detection of NF-κB induced SEAP expression. After a 16-24-hour incubation the optical density (OD) is read at 650 nm on a Molecular Devices SpectraMax 340PC absorbance detector.

mouse TLR2 = biological target: T2, mouse TLR2 (Mus musculus, UniProt Q9QUN7); test: HEK-Blue mTLR2 dose response (SEAP reporter); format: cell-based
T2 construct: expressed in transfected cells; host or cells: HEK-Blue mTLR2 cells
Description: as §1, §2, §3

HEK-Blue Null1 cells = test: TLR- control cell line HEK-Blue Null1 (control for human TLR2); format: cell-based
Description: as §3

HEK-Blue Null2 cells = test: TLR- control cell line HEK-Blue Null2 (control for mouse TLR2); format: cell-based
Description: as §3

[1] = Stability III: accelerated aging at 40° C., 3 or 6 weeks, HPLC recovery; format: physicochemical
Description: Recovery of the target compound was assessed by HPLC, and the values as a percentage of the reference sample are reported in Table 14 and in FIG. 5.

T1 sequence (O60603 21-784): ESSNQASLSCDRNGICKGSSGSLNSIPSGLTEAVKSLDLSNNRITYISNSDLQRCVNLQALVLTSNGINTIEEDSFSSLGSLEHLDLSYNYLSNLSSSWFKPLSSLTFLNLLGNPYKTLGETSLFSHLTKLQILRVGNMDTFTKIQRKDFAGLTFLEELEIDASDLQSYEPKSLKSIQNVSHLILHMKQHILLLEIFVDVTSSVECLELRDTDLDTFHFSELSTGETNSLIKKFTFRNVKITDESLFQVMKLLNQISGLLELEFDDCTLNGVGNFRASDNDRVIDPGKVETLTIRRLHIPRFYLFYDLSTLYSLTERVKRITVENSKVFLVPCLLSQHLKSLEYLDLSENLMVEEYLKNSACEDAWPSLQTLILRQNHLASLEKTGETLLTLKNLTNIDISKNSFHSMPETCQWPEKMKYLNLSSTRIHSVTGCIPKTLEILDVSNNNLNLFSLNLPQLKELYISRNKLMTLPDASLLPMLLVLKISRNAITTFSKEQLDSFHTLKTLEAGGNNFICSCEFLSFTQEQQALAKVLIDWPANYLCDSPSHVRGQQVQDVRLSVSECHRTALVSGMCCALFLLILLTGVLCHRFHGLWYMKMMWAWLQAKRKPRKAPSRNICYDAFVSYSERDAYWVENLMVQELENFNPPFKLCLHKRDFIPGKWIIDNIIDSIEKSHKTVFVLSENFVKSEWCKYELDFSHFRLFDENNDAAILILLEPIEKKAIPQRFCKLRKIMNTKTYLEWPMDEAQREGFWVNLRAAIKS
T1 sequence (Q9Y2C9 32-796 partner): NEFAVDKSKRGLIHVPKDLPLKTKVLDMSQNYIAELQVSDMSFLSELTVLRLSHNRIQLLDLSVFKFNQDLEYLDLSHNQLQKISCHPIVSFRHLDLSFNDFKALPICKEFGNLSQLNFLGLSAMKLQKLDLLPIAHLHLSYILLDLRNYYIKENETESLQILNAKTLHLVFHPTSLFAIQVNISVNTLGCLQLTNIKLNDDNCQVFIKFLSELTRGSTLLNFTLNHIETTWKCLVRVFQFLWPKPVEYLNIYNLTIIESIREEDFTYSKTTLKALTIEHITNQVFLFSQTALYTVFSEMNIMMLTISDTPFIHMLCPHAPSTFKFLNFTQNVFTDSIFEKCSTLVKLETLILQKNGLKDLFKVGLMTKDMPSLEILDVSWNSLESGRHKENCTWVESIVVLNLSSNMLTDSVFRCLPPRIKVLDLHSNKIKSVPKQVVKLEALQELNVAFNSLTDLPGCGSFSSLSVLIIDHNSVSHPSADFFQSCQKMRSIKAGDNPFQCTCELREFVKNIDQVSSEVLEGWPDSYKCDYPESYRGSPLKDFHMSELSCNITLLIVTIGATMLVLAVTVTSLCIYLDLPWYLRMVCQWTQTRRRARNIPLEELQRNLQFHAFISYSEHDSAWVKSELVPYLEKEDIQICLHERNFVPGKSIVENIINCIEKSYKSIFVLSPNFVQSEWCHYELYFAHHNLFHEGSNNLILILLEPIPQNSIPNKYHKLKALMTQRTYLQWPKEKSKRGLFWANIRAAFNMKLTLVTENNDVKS
T2 sequence (Q9QUN7 25-784): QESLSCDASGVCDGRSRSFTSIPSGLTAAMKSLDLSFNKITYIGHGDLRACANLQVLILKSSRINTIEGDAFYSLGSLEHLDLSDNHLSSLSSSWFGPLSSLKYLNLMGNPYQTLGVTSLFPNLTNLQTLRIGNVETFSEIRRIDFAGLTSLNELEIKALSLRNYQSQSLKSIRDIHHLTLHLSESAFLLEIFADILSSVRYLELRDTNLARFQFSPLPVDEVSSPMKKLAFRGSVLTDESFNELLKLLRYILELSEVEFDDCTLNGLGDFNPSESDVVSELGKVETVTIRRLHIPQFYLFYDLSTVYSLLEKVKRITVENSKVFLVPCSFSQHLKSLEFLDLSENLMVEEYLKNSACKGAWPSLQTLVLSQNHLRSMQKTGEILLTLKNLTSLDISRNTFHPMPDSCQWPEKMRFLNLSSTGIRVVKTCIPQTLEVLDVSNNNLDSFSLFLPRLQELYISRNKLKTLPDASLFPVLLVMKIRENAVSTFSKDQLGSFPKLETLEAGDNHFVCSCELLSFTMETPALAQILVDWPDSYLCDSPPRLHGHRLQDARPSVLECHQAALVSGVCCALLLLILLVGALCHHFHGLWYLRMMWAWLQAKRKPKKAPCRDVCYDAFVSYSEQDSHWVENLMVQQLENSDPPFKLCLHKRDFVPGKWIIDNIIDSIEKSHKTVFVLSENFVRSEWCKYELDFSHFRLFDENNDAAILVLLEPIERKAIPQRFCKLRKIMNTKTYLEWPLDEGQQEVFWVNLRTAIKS
T2 sequence (Q9Y2C9 32-796 partner): as the sequence (Q9Y2C9 32-796 partner) above

SMILES | Average optical density (650 nm) (human TLR2; 0.12 pg/mL) | optical density (650 nm) (human TLR2; 0.12 pg/mL) | Average optical density (650 nm) (human TLR2; 0.49 pg/mL) | optical density (650 nm) (human TLR2; 0.49 pg/mL) | Average optical density (650 nm) (human TLR2; 1.95 pg/mL) | optical density (650 nm) (human TLR2; 1.95 pg/mL) | Average optical density (650 nm) (human TLR2; 7.81 pg/mL) | optical density (650 nm) (human TLR2; 7.81 pg/mL) | Average optical density (650 nm) (human TLR2; 31.25 pg/mL) | optical density (650 nm) (human TLR2; 31.25 pg/mL) | Average optical density (650 nm) (human TLR2; 125 pg/mL) | optical density (650 nm) (human TLR2; 125 pg/mL) | Average optical density (650 nm) (human TLR2; 500 pg/mL) | optical density (650 nm) (human TLR2; 500 pg/mL) | stimulatory / agonist activity for hTLR2 (in words) (human TLR2) | fold induction at 120 fg/mL (human TLR2; 0.12 pg/mL) | fold induction at 490 fg/mL (human TLR2; 0.49 pg/mL) | fold induction at 1.95 pg/mL (human TLR2; 1.95 pg/mL) | fold induction at 7.81 pg/mL (human TLR2; 7.81 pg/mL) | fold induction at 31.25 pg/mL (human TLR2; 31.25 pg/mL) | further results
CCCCCCCCCCCCCC[C@@H](C)C(=O)OCC[C@H](CSC[C@H](N)C(=O)N[C@@H](CO)C(=O)NCCOCCOCCOCCOCCOCCOCCOCCOCCOCCOCCOCCOCCOCCOCCOCCOCCOCCOCCOCCOCCOCCOCCOCCOCCOCCOCCOCCOCCC(=O)NCC(N)=O)OC(=O)[C@H](C)CCCCCCCCCCCCCC [Compound B14] | 0.823 | 0.826 and 0.869 and 0.774 | 1.342 | 1.256 and 1.364 and 1.406 | 2.018 | 1.994 and 2.061 and 2.000 | 2.562 | 2.569 and 2.545 and 2.571 | 2.744 | 2.820 and 2.720 and 2.691 | 2.814 | 2.928 and 2.800 and 2.713 | 2.759 | 2.722 and 2.765 and 2.791 | stimulatory activity | 18.7 | 25.5 | 28 | 33 | 33.7 | fold induction at 0.000125 µg/mL (human TLR2; 125 pg/mL): 35.2; fold induction at 0.0005 µg/mL (human TLR2; 500 pg/mL): 33.9; EC50 (human TLR2): 0.264 nM; stimulatory / agonist activity for mTLR2 (in words) (mouse TLR2): stimulatory activity; stimulatory response in HEK-Blue Null1 (human) cells (in words) (HEK-Blue Null1 cells): not observed; stimulatory response in HEK-Blue Null2 (mouse) cells (in words) (HEK-Blue Null2 cells): not observed; stability under accelerated storage conditions (in words) [1]: excellent stabilities
CCCCCCCCCCCCCC[C@H](C)C(=O)OCC[C@H](CSC[C@H](N)C(=O)N[C@@H](CO)C(=O)NCCOCCOCCOCCOCCOCCOCCOCCOCCOCCOCCOCCOCCOCCOCCOCCOCCOCCOCCOCCOCCOCCOCCOCCOCCOCCOCCOCCOCCC(=O)NCC(N)=O)OC(=O)[C@@H](C)CCCCCCCCCCCCCC [Compound B16] | 0.666 | 0.688 and 0.591 and 0.718 | 1.099 | 1.080 and 1.097 and 1.121 | 1.521 | 1.478 and 1.513 and 1.573 | 1.978 | 1.903 and 1.897 and 2.133 | 2.252 | 2.093 and 2.297 and 2.367 | 2.540 | 2.531 and 2.544 and 2.545 | 2.475 | 2.466 and 2.488 and 2.472 | stimulatory activity | 9.2 | 15.3 | 21.1 | 27.5 | 31.3 | fold induction at 0.000125 µg/mL (human TLR2; 125 pg/mL): 35.3; fold induction at 0.0005 µg/mL (human TLR2; 500 pg/mL): 34.4; EC50 (human TLR2): 0.504 nM; stimulatory / agonist activity for mTLR2 (in words) (mouse TLR2): stimulatory activity; stimulatory response in HEK-Blue Null1 (human) cells (in words) (HEK-Blue Null1 cells): not observed; stimulatory response in HEK-Blue Null2 (mouse) cells (in words) (HEK-Blue Null2 cells): not observed; stability under accelerated storage conditions (in words) [1]: excellent stabilities
